Experimental data as given in patent EP3974434B1, “MACROLIDE DERIVATIVES, PREPARATION METHOD AND APPLICATION THEREOF” (Zhejiang Hisun Pharmaceutical Co., Ltd., priority 2019, dated 2020).

Experiments:
TRKA = target: T1, TRKA (Homo sapiens, UniProt P04629); test: HTRF KinEASE-TK kinase activity inhibition assay, TRKA; assay type: biochemical; conditions: ATP 100 µM
T1 construct: purchased Carna bioscience 08-186
Description: (§1) The following method was used to determine the inhibition degrees of the compounds of the present invention on the activity of recombinant human NTRK family kinase in vitro. In this method, HTRF®KinEASE-TK tyrosine kinase kit (article number: 62TK0PEB) of Cisbio company was used, and the principle of the kit was based on time-resolved fluorescence resonance energy transfer (TF-FRET), and the inhibition of the compounds on the activity of the NTRK kinase was reflected by determining a phosphorylation degree of a biotinylated polypeptide substrate mediated by NTRK kinase. For detailed experimental operation, please refer to the kit instruction. Recombinant human wild-type NTRK proteins were purchased from Carna bioscience (the article numbers were TRKA #08-186, TRKB #08-187 and TRKC #08-197 respectively), and recombinant human mutant NTRK proteins were purchased from SignalChem (the article numbers were TRKA G595R #N16-12BG-10, TRKA G667C # N16-12CG-10, and TRKC G623R # N18-12CH-10 respectively).
(§2) The experimental methods were operated according to the steps in the kit instruction, and were briefly described as follows: a test compound was first dissolved in DMSO to prepare a storage solution, and then diluted in gradient with a buffer provided in the kit. A final concentration of the test compound in the reaction system ranged from 1,000 nM to 0.004 nM. An ATP Km value concentration of each NTRK protein was determined by using an ATP solution diluted in gradient (Sangon Biotech (Shanghai) Co., Ltd., A600311). According to the Km value obtained, the ATP concentrations in the reaction system were set as 100 µM for TRKA, 10 µM for TRKB, 50 µM for TRKC, 7 µM for TRKA(G595R), 1 µM for TRKA(G667C) and 100 µM for TRKC(G623R). The reaction was carried out in a 384-well microplate. Firstly, the compound and a certain amount of corresponding NTRK protein were added to the wells and incubated for 5 minutes to 10 minutes at room temperature. Then, the ATP solution and the biotinylated polypeptide substrate solution were added to the reaction solution and incubated with shaking at room temperature for 60 minutes. Then, an anti-phosphorylated tyrosine antibody coupled with a europium compound and streptavidin coupled with modified allophycocyanin XL665 were added to the reaction, and continuously incubated with shaking at room temperature for 1 hour. After incubation, fluorescence intensity values of each well at an excitation wavelength of 304 nm, and emission wavelengths of 620 nm and 665 nM were determined in a TF-FRET mode on a microplate reader. Compared with the fluorescence intensity ratio of a control group (0.1% DMSO), the percentage inhibition rates of the compound at each concentration were calculated, and the IC50 value of the compound was obtained by performing nonlinear regression analysis for logarithmic value of the compound concentration - inhibition rate by GraphPad Prism 5 software, which can be seen in Table 1. Table 1 IC50 data of the compounds of the present invention on TRK enzyme activity inhibition

TRKC = target: T2, TRKC (Homo sapiens, UniProt Q16288); test: HTRF KinEASE-TK kinase activity inhibition assay, TRKC; assay type: biochemical; conditions: ATP 50 µM
T2 construct: purchased Carna bioscience 08-197
Description: as §1, §2

BAF3 LMNA-TRKA^G667C = test: Cell proliferation assay (CellTiter-Glo), BAF3 LMNA-TRKA G667C; assay type: cell-based; conditions: Mus musculus, 72 hours
Method: The following method was used to determine the effects of the compounds of the present invention on cell proliferation. BAF3 cells were purchased from National Infrastructure of Cell Line Resource (Beijing Headquarter). For TRKA, BAF3 cells were used to construct […] stable cell lines of BAF3 LMNA-TRKA^WT and BAF3 LMNA-TRKA^G667C.The above […] cell lines were used to determine the inhibition of the compounds on cell activities. The cells were cultured in an RPMI 1640 medium containing 10% fetal bovine serum, 100 U penicillin and 100 µg/mL streptomycin. The cells were cultured in a 5% CO2 incubator at 37°C. The activities of the cells were determined by CellTiter-Glo® Luminescent Cell Viability Assay kit (Promega, article number: G7573).
The experimental methods were operated according to the steps in the kit instruction, and were briefly described as follows: a test compound was first dissolved in DMSO to prepare a storage solution, and then diluted in gradient with the corresponding cell culture medium to prepare a test sample. A final concentration of the compound ranged from 1 µM to 0.15 nM. […] After the culture, 50 µL of CellTiter-Glo detection solution was added to each well, shaken for 5 minutes, and then stood for 10 minutes, and the luminescence values of each well were read on the microplate reader using a Luminance mode. […]

ALK = target: T3, ALK (Homo sapiens, UniProt Q9UM73); test: HTRF KinEASE-TK kinase activity inhibition assay, ALK; assay type: biochemical; conditions: ATP 1 µM
T3 construct: purchased SignalChem A19-11G-10
Description: The following method was used to determine the inhibition degrees of the compounds of the present invention on the activity of recombinant human ALK kinase in vitro. In this method, HTRF®KinEASE-TK tyrosine kinase kit (article No. 62TK0PEB) of Cisbio company was used, the principle of the kit was based on time-resolved fluorescence resonance energy transfer (TF-FRET), and the inhibition of the compounds on the activity of the ALK kinase was reflected by determining a phosphorylation degree of a biotinylated polypeptide substrate mediated by ALK kinase. […] The recombinant human ALK was purchased from SignalChem (article number was ALK#A19-11G-10).
The experimental flow was briefly described as follows: a test compound was first dissolved in DMSO to prepare a storage solution, and then diluted in gradient with a buffer provided in the kit. A final concentration of the test compound in the reaction system ranged from 1000 nM to 0.004 nM. An ATP Km value concentration of each ALK protein was determined by using an ATP solution diluted in gradient (Sangon Biotech (Shanghai) Co., Ltd., A600311). […] After incubation, fluorescence intensity values of each well at an excitation wavelength of 304 nm, and emission wavelengths of 620 nm and 665 nM were determined in a TF-FRET mode on a microplate reader, and the fluorescence intensity ratio 665/620 of each well was calculated. […]

TRKA(G667C) = target: T4, TRKA(G667C) (Homo sapiens, UniProt P04629, G667C); test: HTRF KinEASE-TK kinase activity inhibition assay, TRKA(G667C); assay type: biochemical; conditions: ATP 1 µM
T4 construct: purchased SignalChem N16-12CG-10
Description: as §1, §2

T2 sequence (Q16288 32-839): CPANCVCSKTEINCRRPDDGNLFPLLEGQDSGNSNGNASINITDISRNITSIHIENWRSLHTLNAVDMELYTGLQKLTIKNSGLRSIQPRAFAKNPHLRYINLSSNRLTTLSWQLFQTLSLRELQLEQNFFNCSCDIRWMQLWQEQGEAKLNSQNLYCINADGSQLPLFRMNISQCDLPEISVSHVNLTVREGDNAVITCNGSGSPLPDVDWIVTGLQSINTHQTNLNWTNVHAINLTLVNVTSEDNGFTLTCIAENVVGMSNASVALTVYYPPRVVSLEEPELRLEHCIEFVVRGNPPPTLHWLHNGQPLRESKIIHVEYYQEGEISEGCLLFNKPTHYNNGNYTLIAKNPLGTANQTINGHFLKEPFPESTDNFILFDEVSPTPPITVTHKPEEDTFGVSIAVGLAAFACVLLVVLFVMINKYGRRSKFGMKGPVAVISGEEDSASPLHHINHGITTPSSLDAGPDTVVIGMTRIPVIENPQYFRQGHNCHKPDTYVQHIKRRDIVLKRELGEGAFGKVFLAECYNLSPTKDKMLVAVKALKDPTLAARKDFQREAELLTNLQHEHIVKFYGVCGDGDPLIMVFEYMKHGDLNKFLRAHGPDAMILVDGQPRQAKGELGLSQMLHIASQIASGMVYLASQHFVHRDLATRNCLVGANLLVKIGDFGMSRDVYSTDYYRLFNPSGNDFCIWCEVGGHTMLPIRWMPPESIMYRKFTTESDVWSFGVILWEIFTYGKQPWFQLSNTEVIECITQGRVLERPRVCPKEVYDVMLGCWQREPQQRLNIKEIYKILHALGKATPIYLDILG
T1 sequence (P04629 33-796): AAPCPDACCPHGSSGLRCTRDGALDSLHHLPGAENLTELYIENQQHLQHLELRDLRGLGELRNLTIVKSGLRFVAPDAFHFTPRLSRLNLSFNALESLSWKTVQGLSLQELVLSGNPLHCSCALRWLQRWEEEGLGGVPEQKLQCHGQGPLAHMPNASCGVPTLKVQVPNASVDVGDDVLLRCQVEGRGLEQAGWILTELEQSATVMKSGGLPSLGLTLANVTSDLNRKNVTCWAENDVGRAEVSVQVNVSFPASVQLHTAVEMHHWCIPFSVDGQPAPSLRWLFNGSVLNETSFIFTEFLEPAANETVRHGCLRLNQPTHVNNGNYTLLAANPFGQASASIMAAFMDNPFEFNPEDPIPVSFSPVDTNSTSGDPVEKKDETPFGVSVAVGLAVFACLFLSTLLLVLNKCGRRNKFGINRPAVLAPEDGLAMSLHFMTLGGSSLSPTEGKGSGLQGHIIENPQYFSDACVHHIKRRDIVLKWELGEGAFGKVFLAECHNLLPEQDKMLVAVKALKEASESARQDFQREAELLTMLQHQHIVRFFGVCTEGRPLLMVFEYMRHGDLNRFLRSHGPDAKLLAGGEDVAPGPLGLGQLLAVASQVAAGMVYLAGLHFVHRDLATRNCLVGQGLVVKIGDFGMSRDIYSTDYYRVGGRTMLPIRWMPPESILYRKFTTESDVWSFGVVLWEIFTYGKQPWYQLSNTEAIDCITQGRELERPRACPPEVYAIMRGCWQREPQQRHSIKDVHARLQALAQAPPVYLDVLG
T3 sequence (Q9UM73 19-1620): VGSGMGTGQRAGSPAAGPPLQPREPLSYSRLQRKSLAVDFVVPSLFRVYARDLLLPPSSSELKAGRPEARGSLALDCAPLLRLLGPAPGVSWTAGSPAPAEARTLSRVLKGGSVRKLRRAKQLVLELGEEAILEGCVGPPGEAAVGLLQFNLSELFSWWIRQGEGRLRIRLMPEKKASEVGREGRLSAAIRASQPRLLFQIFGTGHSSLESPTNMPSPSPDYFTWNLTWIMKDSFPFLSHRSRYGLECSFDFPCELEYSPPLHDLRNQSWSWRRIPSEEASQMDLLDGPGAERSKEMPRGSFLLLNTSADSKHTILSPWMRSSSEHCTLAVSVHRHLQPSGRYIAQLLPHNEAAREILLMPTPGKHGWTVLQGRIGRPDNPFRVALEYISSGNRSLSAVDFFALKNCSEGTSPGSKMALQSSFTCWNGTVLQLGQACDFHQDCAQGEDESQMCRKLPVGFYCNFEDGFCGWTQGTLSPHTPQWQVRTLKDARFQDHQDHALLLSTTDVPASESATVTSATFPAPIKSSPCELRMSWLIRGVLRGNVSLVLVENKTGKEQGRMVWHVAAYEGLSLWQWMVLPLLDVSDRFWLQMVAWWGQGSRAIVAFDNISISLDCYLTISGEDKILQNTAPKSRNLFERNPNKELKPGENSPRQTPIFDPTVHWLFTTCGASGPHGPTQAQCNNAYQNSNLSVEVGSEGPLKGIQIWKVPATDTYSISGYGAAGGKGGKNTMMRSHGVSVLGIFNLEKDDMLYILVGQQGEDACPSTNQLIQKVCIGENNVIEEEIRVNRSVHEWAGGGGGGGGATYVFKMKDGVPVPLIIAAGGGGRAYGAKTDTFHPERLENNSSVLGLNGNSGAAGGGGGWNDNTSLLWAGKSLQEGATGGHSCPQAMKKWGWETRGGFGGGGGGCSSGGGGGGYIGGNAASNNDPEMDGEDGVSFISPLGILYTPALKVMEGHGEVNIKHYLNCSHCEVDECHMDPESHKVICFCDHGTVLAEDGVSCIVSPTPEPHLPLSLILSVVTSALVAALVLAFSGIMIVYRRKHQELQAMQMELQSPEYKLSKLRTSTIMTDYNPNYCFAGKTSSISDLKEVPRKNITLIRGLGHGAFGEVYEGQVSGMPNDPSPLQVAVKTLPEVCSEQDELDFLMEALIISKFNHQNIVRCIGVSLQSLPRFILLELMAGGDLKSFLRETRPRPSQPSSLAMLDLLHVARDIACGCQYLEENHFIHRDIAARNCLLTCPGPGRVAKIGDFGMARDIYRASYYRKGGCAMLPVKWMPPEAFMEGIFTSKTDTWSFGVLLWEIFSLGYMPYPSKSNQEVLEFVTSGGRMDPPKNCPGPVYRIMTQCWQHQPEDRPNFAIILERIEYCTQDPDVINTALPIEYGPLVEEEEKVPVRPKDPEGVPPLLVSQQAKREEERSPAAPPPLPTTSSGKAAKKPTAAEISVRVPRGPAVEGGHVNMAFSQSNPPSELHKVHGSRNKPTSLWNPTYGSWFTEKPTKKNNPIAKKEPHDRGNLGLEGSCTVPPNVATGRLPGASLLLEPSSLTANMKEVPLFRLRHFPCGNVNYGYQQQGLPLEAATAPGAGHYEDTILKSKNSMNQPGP
T4 sequence (P04629 33-796 G667C): as the sequence (P04629 33-796) above, with G635C counted along it

Row | IC50 (TRKA) | IC50 (TRKC) | IC50 (BAF3 LMNA-TRKA^G667C) | IC50 (ALK) | IC50 (TRKA(G667C)) | Structure (SMILES)
1 | 0.56 nM | 0.22 nM | 77.6 nM | 2.02 nM |  | C[C@H]1Nc2ccn3ncc(c3n2)C(=O)NC[C@@]2(C)Cc3cc(F)cc1c3O2 [Example 8, (3R,11R)-6-fluoro-3,11-dimethyl-10-oxa-2,13,17,1 8,21-pentaazapentacyclo[13.5.2.1^8,11.0^4,9.0^18,22]tric osa-1(21),4,6,8,15(22),16,19-heptaen-14-one]
2 | 0.82 nM | 0.7 nM | 46.7 nM | 1.93 nM | 9.5 nM | C[C@H]1Nc2ccn3nc(N)c(c3n2)C(=O)NC[C@@]2(C)Cc3cc(F)cc1c3O2 [Example 25, (3R,11R)-16-amino-6-fluoro-3,11-dimethyl-10-oxa-2,13,17,18,21-pentaazapentacyclo[13.5.2.1^8,11.0^4,9. 0^18,22]tricosa-1(21),4,6,8,15(22),16,19-heptaen-14-one]
